Assay results published in US9624213B2 (Plexxikon Inc., priority 2011, dated 2017).

Key:
A375 = test: A375_P-ERK / A375 cell activity; type: cell-based; settings: Homo sapiens, A-375; A375 cells (A375_P-ERK)
Experimental: (§1) Compounds are assessed in a variety of cell based assays. For example human cell lines with B-Raf V600E mutation (A375 melanoma, SKMEL3 melanoma, and COLO205 colon adenocarcinoma), as well as tumorigenic cell lines with wild-type B-RAF (SW620 colon adenocarcinoma) or with Ras mutations (SKMEL2 melanoma and IPC298 melanoma). Similar assays may be used to assess additional tumorigenic cell lines with Ras mutations, including, but not limited to, M202, M207, M243, M244, M296, S117, HCT116, HCT15, DLD1, MiaPaCa, A549, NCI-H23, NCI-H460, HOP62, MDA-MB231, Hs-578T, HL60, MOLT-4, and CCRF-CEM.
(§2) On day 1, cells are counted, then centrifuged in a conical tube for 5 minutes at 1000 rpm. The supernatant is removed and cells are re-suspended as follows: • SW620 (ATCC catalog #CCL-27): resuspend in Leibovitz's L-15 medium, 2 mM L-glutamine, 10% fetal bovine serum to 6×10^4 cells/mL. • A375 (ATCC catalog #CRL-1619): resuspend in Dulbecco's modified Eagle's medium, 4 mM L-glutamine, 4.5 g/L D-glucose, 10% fetal bovine serum to 6×10^4 cells/mL. • COLO205 (ATCC catalog #CCL-222): resuspend in RPMI 1640, 2 mM L-glutamine, 1.5 g/L sodium bicarbonate, 4.5 g/L D-glucose, 10 mM HEPES, 1.0 mM sodium pyruvate, 10% fetal bovine serum to 6×10^4 cells/mL. • SKMEL2 (ATCC catalog #HTB-68): resuspend in Minimum Eagle essential medium, 2 mM L-glutamine, 1.5 g/L sodium bicarbonate, 0.1 mM non-essential amino acids, 1.0 mM sodium pyruvate, 10% fetal bovine serum to 6×10^4 cells/mL. • SKMEL3 (ATCC catalog #HTB-69): resuspend in McCoy's 5A medium, 1.5 mM L-glutamine, 15% fetal bovine serum to 6×10^4 cells/mL. • IPC298 (DSMZ catalog #ACC 251): resuspend in RPMI 1640, 2 mM L-glutamine, 10% fetal bovine serum to 6×10^4 cells/mL.
(§3) The cells are plated, 50 μL in each well of a 96-well dish (Corning 3610) and incubated at 37° C. in 5% CO2 overnight, cells plated to a final concentration of cells as follows: • SW620: 5,000 cells per well. • A375: 2,000 cells per well. • COLO205: 2,000 cells per well. • SKMEL2: 2,000 cells per well. • SKMEL3: 3,000 cells per well. • IPC298: 2,000 cells per well.
(§4) On day 2, compound at a maximum concentration of 5 mM is serially diluted 1:3 (e.g. 10 μL with 30 μL dimethyl sulfoxide) for a total of 8 point titration with DMSO as a control. A 1 μL aliquot of each dilution point and control is added to 249 μL growth media and 50 μL is added to a well containing cells, providing 10 μM compound at the maximum concentration point. The cells are incubated for 3 days at 37° C. in 5% CO2.
(§5) On day 5, ATPlite 1 step Luminescence Assay System (Perkin Elmer #6016739) is brought to room temperature along with the cell cultures. ATPlite is added 25 μL to each well, shake for 2 minutes, and the cells are incubated at room temperature for 10 minutes, then luminescence is read on Satire reader. The measured luminescence correlates directly with cell number, such that the reading as a function of compound concentration is used to determine the IC50 value.

COLO205 = COLO205 cell growth inhibitory activity (ATPlite); type: cell-based; settings: Homo sapiens, COLO 205, 72 h; COLO205 cells, growth inhibition, 3 days
Experimental: as §1, §2, §3, §4, §5

Row | SMILES | IC50 (A375) [µM] | IC50 (COLO205) [µM]
1 | COc1ncc(-c2cnc3[nH]cc(C(=O)c4cccc(NS(=O)(=O)N5CCC(OCc6ccccc6)C5)c4F)c3c2)cn1 (stereo not shown) [Compound P-0041, 3-benzyloxy-N-[2-fluoro-3-[5-(2-methoxypyrimidin-5-yl)-1H-pyrrolo[2,3-b]pyridine-3-carbonyl]phenyl]pyrrolidine-1-sulfonamide] | > 1 | 
2 | CN(C)c1ccc(-c2cnc3[nH]cc(C(=O)c4cccc(NS(=O)(=O)N5CCCC5)c4F)c3c2)cn1 [Compound P-0046, N-[3-[5-[6-(dimethylamino)-3-pyridyl]-1H-pyrrolo[2,3-b]pyridine-3-carbonyl]-2-fluoro-phenyl]pyrrolidine-1-sulfonamide] | < 1 | < 1
3 | O=C(c1c(F)ccc(NS(=O)(=O)N2CCCC2)c1F)c1c[nH]c2ncc(I)cc12 [Compound P-0024] | < 1 | > 1
4 | CN(C)c1ncc(-c2cnc3[nH]cc(C(=O)c4c(F)ccc(NS(=O)(=O)N5CCCC5)c4F)c3c2)cn1 [Compound P-0022] | < 1 | < 1
5 | COC(=O)CCS(=O)(=O)Nc1cccc(C(=O)c2c[nH]c3ncc(-c4cnc(OC)nc4)cc23)c1F [Compound P-0066, methyl 3-[[2-fluoro-3-[5-(2-methoxypyrimidin-5-yl)-1H-pyrrolo[2,3-b]pyridine-3-carbonyl]phenyl]sulfamoyl]propanoate] | < 1 | < 1
6 | COc1ncc(-c2cnc3[nH]cc(C(=O)c4cccc(NS(=O)(=O)N(C)C(C)C)c4F)c3c2)cn1 [Compound P-0075, 3-[2-fluoro-3-[[isopropyl(methyl)sulfamoyl]amino]benzoyl]-5-(2-methoxypyrimidin-5-yl)-1H-pyrrolo[2,3-b]pyridine] | < 1 | > 1
7 | O=C(c1c(F)ccc(NS(=O)(=O)N2CCCC2)c1F)c1c[nH]c2ncc(-c3ccnc(OC4CCC4)c3)cc12 [Compound P-0286, N-[3-[5-[2-(cyclobutoxy)-4-pyridyl]-1H-pyrrolo[2,3-b]pyridine-3-carbonyl]-2,4-difluoro-phenyl]pyrrolidine-1-sulfonamide] | > 1 | < 1
8 | O=C(c1c(F)ccc(NS(=O)(=O)N2CCCC2)c1F)c1c[nH]c2ncc(F)c(I)c12 [Compound P-0015, N-[2,4-difluoro-3-(5-fluoro-4-iodo-1H-pyrrolo[2,3-b]pyridine-3-carbonyl)phenyl]pyrrolidine-1-sulfonamide] | < 1 | > 1
9 | CCN(C)S(=O)(=O)Nc1cccc(C(=O)c2c[nH]c3ncc(-c4ccc(C5(C#N)CC5)cc4)cc23)c1F [Compound P-0061, 5-[4-(1-cyanocyclopropyl)phenyl]-3-[3-[[ethyl(methyl)sulfamoyl]amino]-2-fluoro-benzoyl]-1H-pyrrolo[2,3-b]pyridine] | < 1 | < 1
10 | CCN(C)S(=O)(=O)Nc1cccc(C(=O)c2c[nH]c3ncc(-c4cccnc4)cc23)c1F [Compound P-0032] | < 1 | < 1
11 | CCN(C)S(=O)(=O)Nc1cccc(C(=O)c2c[nH]c3ncc(-c4ccccc4)cc23)c1F [Compound P-0036, 3-[3-[[ethyl(methyl)sulfamoyl]amino]-2-fluoro-benzoyl]-5-phenyl-1H-pyrrolo[2,3-b]pyridine] | < 1 | > 1
12 | O=C(c1c(F)ccc(NS(=O)(=O)N2CCCC2)c1F)c1c[nH]c2ncc(-c3ccc(Cl)cc3)cc12 [Compound P-0021] | < 1 | < 1
13 | CC1(C)CCN(S(=O)(=O)Nc2cccc(C(=O)c3c[nH]c4ncc(-c5cnc(C6CC6)nc5)cc34)c2F)C1 [Compound P-0246, N-[3-[5-(2-cyclopropylpyrimidin-5-yl)-1H-pyrrolo[2,3-b]pyridine-3-carbonyl]-2-fluoro-phenyl]-3,3-dimethyl-pyrrolidine-1-sulfonamide] | > 1 | 
14 | CCN(C)S(=O)(=O)Nc1cccc(C(=O)c2c[nH]c3ncc(-c4cncc(C#N)c4)cc23)c1F [Compound P-0101, 5-(5-cyano-3-pyridyl)-3-[3-[[ethyl(methyl)sulfamoyl]amino]-2-fluoro-benzoyl]-1H-pyrrolo[2,3-b]pyridine] | < 1 | 

The next lines start with the values.

Row | IC50 (A375) [µM] | IC50 (COLO205) [µM] | SMILES
15 | > 1 | > 1 | CCOc1cnc(-c2cnc3[nH]cc(C(=O)c4c(F)ccc(NS(=O)(=O)N(C)C)c4F)c3c2)cn1 [Compound P-0244, 3-[3-(dimethylsulfamoylamino)-2,6-difluoro-benzoyl]-5-(5-ethoxypyrazin-2-yl)-1H-pyrrolo[2,3-b]pyridine]
16 | < 1 | < 1 | CCN(C)S(=O)(=O)Nc1cccc(C(=O)c2c[nH]c3ncc(-c4ccc(C5CC5)nc4)cc23)c1F [Compound P-0087, 5-(6-cyclopropyl-3-pyridyl)-3-[3-[[ethyl(methyl)sulfamoyl]amino]-2-fluoro-benzoyl]-1H-pyrrolo[2,3-b]pyridine]
17 | < 1 | > 1 | CCN(C)S(=O)(=O)Nc1cccc(C(=O)c2c[nH]c3ncc(-c4cnc(N5CCCC5)nc4)cc23)c1F [Compound P-0108, 3-[3-[[ethyl(methyl)sulfamoyl]amino]-2-fluoro-benzoyl]-5-(2-pyrrolidin-1-ylpyrimidin-5-yl)-1H-pyrrolo[2,3-b]pyridine]
18 | < 1 | < 1 | CCCN(C)S(=O)(=O)Nc1cccc(C(=O)c2c[nH]c3ncc(-c4cnc(C5CC5)nc4)cc23)c1F [Compound P-0086, 5-(2-cyclopropylpyrimidin-5-yl)-3-[2-fluoro-3-[[methyl(propyl)sulfamoyl]amino]benzoyl]-1H-pyrrolo[2,3-b]pyridine]
19 | < 1 | < 1 | CCN(C)S(=O)(=O)Nc1ccc(F)c(C(=O)c2c[nH]c3ncc(-c4cccc(N(C)C)c4)cc23)c1F [Compound P-0302, 5-[3-(dimethylamino)phenyl]-3-[3-[[ethyl(methyl)sulfamoyl]amino]-2,6-difluoro-benzoyl]-1H-pyrrolo[2,3-b]pyridine]
20 | < 1 | < 1 | N#Cc1ncc(-c2cnc3[nH]cc(C(=O)c4cccc(NS(=O)(=O)N5CCCC5)c4F)c3c2)cn1 [Compound P-0091, N-[3-[5-(2-cyanopyrimidin-5-yl)-1H-pyrrolo[2,3-b]pyridine-3-carbonyl]-2-fluoro-phenyl]pyrrolidine-1-sulfonamide]
21 | < 1 | < 1 | CN(C)S(=O)(=O)Nc1cccc(C(=O)c2c[nH]c3ncc(-c4cnc(C#N)nc4)cc23)c1F [Compound P-0096, 5-(2-cyanopyrimidin-5-yl)-3-[3-(dimethylsulfamoylamino)-2-fluoro-benzoyl]-1H-pyrrolo[2,3-b]pyridine]
22 | < 1 | < 1 | CN(C)S(=O)(=O)Nc1ccc(F)c(C(=O)c2c[nH]c3ncc(-c4ccc(C(C)(C)C#N)cc4)cc23)c1F [Compound P-0255]
23 | < 1 | > 1 | CCN(C)S(=O)(=O)Nc1ccc(F)c(C(=O)c2c[nH]c3ncc(-c4ccc(C#N)cc4)cc23)c1F [Compound P-0300, 5-(4-cyanophenyl)-3-[3-[[ethyl(methyl)sulfamoyl]amino]-2,6-difluoro-benzoyl]-1H-pyrrolo[2,3-b]pyridine]
24 | < 1 | < 1 | COc1ncc(-c2cnc3[nH]cc(C(=O)c4cccc(NS(=O)(=O)N(C)CC5CC5)c4F)c3c2)cn1 [Compound P-0083, 3-[3-[[cyclopropylmethyl(methyl)sulfamoyl]amino]-2-fluoro-benzoyl]-5-(2-methoxypyrimidin-5-yl)-1H-pyrrolo[2,3-b]pyridine]
25 |  | > 1 | CCOC(=O)C1CCCN1S(=O)(=O)Nc1cccc(C(=O)c2c[nH]c3ncc(-c4cnc(OC)nc4)cc23)c1F (stereo not shown) [Compound P-0257, ethyl 1-[[2-fluoro-3-[5-(2-methoxypyrimidin-5-yl)-1H-pyrrolo[2,3-b]pyridine-3-carbonyl]phenyl]sulfamoyl]pyrrolidine-2-carboxylate]
